Measurements reported in US12077503B2, “Substituted cyclic amides and their use as herbicides” (FMC CORPORATION, priority 2015, dated 2024).
Where two headings read alike, the source gives them in different places.

Legend:
Assay type in all cases: in vivo
corn (Zea mays) = test: Test C preemergence; settings: for Plant response rating (scale of 0 to 100), Corn: 31 g ai/ha, 0 is no effect, 100 is complete control; for Plant response rating, Corn: scale 0 to 100, 0 no effect, 100 complete control
In short: (§1)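 Preemergence: sow in loam-sand soil and treat. Postemergence: grow in peat-moss/vermiculite medium to 2–18 cm (1–4 leaves) and spray. Compound in non-phytotoxic solvent with surfactant; keep in greenhouse 13–15 d; score visually against controls, 0 (none) to 100 (full control).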

[1] = system: nutsedge, yellow (yellow nutsedge, Cyperus esculentus); test: Test C preemergence; settings: for Plant response rating (scale of 0 to 100), Nutsedge, Yellow: 31 g ai/ha, 0 is no effect, 100 is complete control; for Plant response rating, Nutsedge, Yellow: scale 0 to 100, 0 no effect, 100 complete control
In short: as §1

[2] = system: velvetleaf (Abutilon theophrasti); test: Test C preemergence; settings: for Plant response rating (scale of 0 to 100), Velvetleaf: 31 g ai/ha, 0 is no effect, 100 is complete control; for Plant response rating, Velvetleaf: scale 0 to 100, 0 no effect, 100 complete control
In short: as §1

[3] = system: morningglory (Ipomoea coccinea); test: Test C preemergence; settings: for Plant response rating (scale of 0 to 100), Morningglory: 31 g ai/ha, 0 is no effect, 100 is complete control; for Plant response rating, Morningglory: scale 0 to 100, 0 no effect, 100 complete control
In short: as §1

[4] = system: waterhemp (common waterhemp, Amaranthus rudis); test: Test C preemergence; settings: for Plant response rating (scale of 0 to 100), Waterhemp: 31 g ai/ha, 0 is no effect, 100 is complete control; for Plant response rating, Waterhemp: scale 0 to 100, 0 no effect, 100 complete control
In short: as §1

[5] = system: ryegrass, Italian (Italian ryegrass, Lolium multiflorum); test: Test C preemergence; settings: for Plant response rating (scale of 0 to 100), Ryegrass, Italian: 31 g ai/ha, 0 is no effect, 100 is complete control; for Plant response rating, Ryegrass, Italian: scale 0 to 100, 0 no effect, 100 complete control
In short: as §1

[6] = system: lambsquarters (Chenopodium album); test: Test C preemergence; settings: for Plant response rating (scale of 0 to 100), Lambsquarters: 31 g ai/ha, 0 is no effect, 100 is complete control; for Plant response rating, Lambsquarters: scale 0 to 100, 0 no effect, 100 complete control
In short: as §1

[7] = system: pigweed (Amaranthus retroflexus); test: Test C preemergence; settings: for Plant response rating (scale of 0 to 100), Pigweed: 31 g ai/ha, 0 is no effect, 100 is complete control; for Plant response rating, Pigweed: scale 0 to 100, 0 no effect, 100 complete control
In short: as §1

[8] = system: crabgrass, large (large crabgrass, Digitaria sanguinalis); test: Test C preemergence; settings: for Plant response rating (scale of 0 to 100), Crabgrass, Large: 31 g ai/ha, 0 is no effect, 100 is complete control; for Plant response rating, Crabgrass, Large: scale 0 to 100, 0 no effect, 100 complete control
In short: as §1

Kochia (Kochia scoparia) = test: Test A postemergence; settings: Bassia scoparia, post-emergence, 240 h; for pest or weed control at 125 g/ha: 125 g ai/ha; for pest or weed control at 500 g/ha: 500 g ai/ha
In short: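 Compounds were formulated in a non-phytotoxic solvent mixture with surfactant and applied as a preemergence directed soil spray after seeding, or sprayed postemergence over plants 2 to 10 cm tall at the one- to two-leaf stage. Evaluation after about 10 d compared treated with untreated controls, using a scale from 0 (no effect) to 100 (complete control).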

rice (Oryra sativa) = test: Test B flooded paddy test; settings: Flood, 250 g ai/ha; for Plant response rating, Rice: 0 to 100 scale where 0 is no effect and 100 is complete control, 13 to 15 d
In short: (§2)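 Greenhouse paddy pots with 2-leaf stage plants received compound by direct addition to floodwater 3 cm deep, kept at that level. Scored visually at 13–15 d versus controls (0 no effect; 100 complete control).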

[9] = system: ducksalad (Heteranthera limosa); test: Test B flooded paddy test; settings: Flood, 250 g ai/ha; for Plant response rating, Ducksalad: 0 to 100 scale where 0 is no effect and 100 is complete control, 13 to 15 d
In short: as §2

[10] = system: barnyardgrass (Echinochloa crus-galli); test: Test B flooded paddy test; settings: Flood, 250 g ai/ha; for Plant response rating, Barnyardgrass: 0 to 100 scale where 0 is no effect and 100 is complete control, 13 to 15 d
In short: as §2

[11] = system: sedge, umbrella (small-flower umbrella sedge, Cyperus difformis); test: Test B flooded paddy test; settings: Flood, 250 g ai/ha; for Plant response rating, Sedge, Umbrella: 0 to 100 scale where 0 is no effect and 100 is complete control, 13 to 15 d
In short: as §2

[12] = postemergence, visual rating after approx. 10 d, 0 to 100 scale (0 no effect, 100 complete control), read-out: Plant response rating, Kochia

In the case of `CN1C[C@H](c2ccc(F)c(F)c2)[C@@H](C(=O)Nc2cccc(F)c2F)C1=O` [Compound 639, (3S,4S)—N-(2,3-difluorophenyl)-4-(3,4-difluorophenyl)-1-methyl-2-oxo-3-pyrrolidinecarboxamide], the “Plant response rating (scale of 0 to 100), Corn” value (corn (Zea mays)) is reported as 5, the “Plant response rating, Corn” value (corn (Zea mays); 62 g ai/ha) is reported as 40 and the “Plant response rating, Corn” value (corn (Zea mays); 125 g ai/ha) is reported as 80. The “Plant response rating, Corn” value (corn (Zea mays); 250 g ai/ha) was 85, the “Plant response rating (scale of 0 to 100), Nutsedge, Yellow” value [1] was 0 and the “Plant response rating, Nutsedge, Yellow” value ([1]; 62 g ai/ha) was 0. For the same compound, the “Plant response rating, Nutsedge, Yellow” value ([1]; 125 g ai/ha) was 0, the “Plant response rating, Nutsedge, Yellow” value ([1]; 250 g ai/ha) was 20 and the “Plant response rating (scale of 0 to 100), Velvetleaf” value [2] was 0. For the same compound, the “Plant response rating, Velvetleaf” value ([2]; 62 g ai/ha) was 30, the “Plant response rating, Velvetleaf” value ([2]; 125 g ai/ha) was 65 and the “Plant response rating, Velvetleaf” value ([2]; 250 g ai/ha) was 55. The “Plant response rating (scale of 0 to 100), Morningglory” value [3] was 20, the “Plant response rating, Morningglory” value ([3]; 62 g ai/ha) was 10 and the “Plant response rating, Morningglory” value ([3]; 125 g ai/ha) was 35. The “Plant response rating, Morningglory” value ([3]; 250 g ai/ha) was 40, the “Plant response rating (scale of 0 to 100), Waterhemp” value [4] was 50 and the “Plant response rating, Waterhemp” value ([4]; 62 g ai/ha) was 65. For the same compound, the “Plant response rating, Waterhemp” value ([4]; 125 g ai/ha) was 75, the “Plant response rating, Waterhemp” value ([4]; 250 g ai/ha) was 80 and the “Plant response rating (scale of 0 to 100), Ryegrass, Italian” value [5] was 25. For the same compound, the “Plant response rating, Ryegrass, Italian” value ([5]; 62 g ai/ha) was 60, the “Plant response rating, Ryegrass, Italian” value ([5]; 125 g ai/ha) was 60 and the “Plant response rating, Ryegrass, Italian” value ([5]; 250 g ai/ha) was 70. For the same compound, the “Plant response rating (scale of 0 to 100), Lambsquarters” value [6] was 20, the “Plant response rating, Lambsquarters” value ([6]; 62 g ai/ha) was 25 and the “Plant response rating, Lambsquarters” value ([6]; 125 g ai/ha) was 40. The “Plant response rating, Lambsquarters” value ([6]; 250 g ai/ha) was 70, the “Plant response rating (scale of 0 to 100), Pigweed” value [7] was 40 and the “Plant response rating, Pigweed” value ([7]; 62 g ai/ha) was 55. For the same compound, the “Plant response rating, Pigweed” value ([7]; 125 g ai/ha) was 65, the “Plant response rating, Pigweed” value ([7]; 250 g ai/ha) was 75 and the “Plant response rating (scale of 0 to 100), Crabgrass, Large” value [8] was 98. For the same compound, the “Plant response rating, Crabgrass, Large” value ([8]; 62 g ai/ha) was 98, the “Plant response rating, Crabgrass, Large” value ([8]; 125 g ai/ha) was 100 and the “Plant response rating, Crabgrass, Large” value ([8]; 250 g ai/ha) was 100. The pest or weed control at 125 g/ha (Kochia (Kochia scoparia); [12]) was 60%, the pest or weed control at 500 g/ha (Kochia (Kochia scoparia); postemergence, visual injury, 0 to 100 scale (0 no effect, 100 complete control), approx. 10 d, read-out: Plant response rating, Kochia) was 70% and the “Plant response rating, Rice” value (rice (Oryra sativa)) was 0. The “Plant response rating, Ducksalad” value [9] was 100, the “Plant response rating, Barnyardgrass” value [10] was 80 and the “Plant response rating, Sedge, Umbrella” value [11] was 0.
`CN1C[C@H](c2ccc(C(F)(F)F)cc2)[C@@H](C(=O)Nc2ccccc2F)C1=O` [Compound 622, (3S,4S)—N-(2-fluorophenyl)-1-methyl-2-oxo-4-[4-(trifluoromethyl)phenyl]-3-pyrrolidinecarboxamide] was tested, and the “Plant response rating (scale of 0 to 100), Corn” value (corn (Zea mays)) was 5, the “Plant response rating, Corn” value (corn (Zea mays); 62 g ai/ha) was 45 and the “Plant response rating, Corn” value (corn (Zea mays); 125 g ai/ha) was 85. For the same compound, the “Plant response rating, Corn” value (corn (Zea mays); 250 g ai/ha) was 80, the “Plant response rating (scale of 0 to 100), Nutsedge, Yellow” value [1] was 0 and the “Plant response rating, Nutsedge, Yellow” value ([1]; 62 g ai/ha) was 0. For the same compound, the “Plant response rating, Nutsedge, Yellow” value ([1]; 125 g ai/ha) was 0, the “Plant response rating, Nutsedge, Yellow” value ([1]; 250 g ai/ha) was 0 and the “Plant response rating (scale of 0 to 100), Velvetleaf” value [2] was 0. For the same compound, the “Plant response rating, Velvetleaf” value ([2]; 62 g ai/ha) was 25, the “Plant response rating, Velvetleaf” value ([2]; 125 g ai/ha) was 70 and the “Plant response rating, Velvetleaf” value ([2]; 250 g ai/ha) was 70. The “Plant response rating (scale of 0 to 100), Morningglory” value [3] was 0, the “Plant response rating, Morningglory” value ([3]; 62 g ai/ha) was 0 and the “Plant response rating, Morningglory” value ([3]; 125 g ai/ha) was 25. The “Plant response rating, Morningglory” value ([3]; 250 g ai/ha) was 20, the “Plant response rating (scale of 0 to 100), Waterhemp” value [4] was 75 and the “Plant response rating, Waterhemp” value ([4]; 62 g ai/ha) was 85. The “Plant response rating, Waterhemp” value ([4]; 125 g ai/ha) was 90, the “Plant response rating, Waterhemp” value ([4]; 250 g ai/ha) was 90 and the “Plant response rating (scale of 0 to 100), Ryegrass, Italian” value [5] was 25. For the same compound, the “Plant response rating, Ryegrass, Italian” value ([5]; 62 g ai/ha) was 50, the “Plant response rating, Ryegrass, Italian” value ([5]; 125 g ai/ha) was 35 and the “Plant response rating, Ryegrass, Italian” value ([5]; 250 g ai/ha) was 70. The “Plant response rating (scale of 0 to 100), Lambsquarters” value [6] was 75, the “Plant response rating, Lambsquarters” value ([6]; 62 g ai/ha) was 35 and the “Plant response rating, Lambsquarters” value ([6]; 125 g ai/ha) was 70. The “Plant response rating, Lambsquarters” value ([6]; 250 g ai/ha) was 75, the “Plant response rating (scale of 0 to 100), Pigweed” value [7] was 75 and the “Plant response rating, Pigweed” value ([7]; 62 g ai/ha) was 85. The “Plant response rating, Pigweed” value ([7]; 125 g ai/ha) was 85, the “Plant response rating, Pigweed” value ([7]; 250 g ai/ha) was 90 and the “Plant response rating (scale of 0 to 100), Crabgrass, Large” value [8] was 100. For the same compound, the “Plant response rating, Crabgrass, Large” value ([8]; 62 g ai/ha) was 95, the “Plant response rating, Crabgrass, Large” value ([8]; 125 g ai/ha) was 100 and the “Plant response rating, Crabgrass, Large” value ([8]; 250 g ai/ha) was 100. For the same compound, the pest or weed control at 125 g/ha (Kochia (Kochia scoparia); [12]) was 40%, the pest or weed control at 500 g/ha (Kochia (Kochia scoparia); Postemergence, 0 to 100 scale where 0 is no effect and 100 is complete control, read-out: Plant response rating, Kochia) was 60% and the “Plant response rating, Rice” value (rice (Oryra sativa)) was 0. The “Plant response rating, Ducksalad” value [9] was 100, the “Plant response rating, Barnyardgrass” value [10] was 70 and the “Plant response rating, Sedge, Umbrella” value [11] was 0.
For `CN1C[C@H](c2cc(F)c(C(F)(F)F)c(F)c2)[C@@H](C(=O)Nc2ccccc2S(C)(=O)=O)C1=O` [Compound 900], the pest or weed control at 125 g/ha (Kochia (Kochia scoparia); postemergence, visual injury rating after approximately 10 d, read-out: Kochia plant response rating (0 to 100 scale, 0 no effect, 100 complete control)) was 30%, the pest or weed control at 250 g/ha (rice (Oryra sativa); Oryza sativa, scale of 0 to 100 where 0 is no effect and 100 is complete control, read-out: Rice plant response rating) was 0% and the pest or weed control at 250 g/ha ([9]; Heteranthera limosa, scale of 0 to 100 where 0 is no effect and 100 is complete control, read-out: Ducksalad plant response rating) was 40%. The pest or weed control at 250 g/ha ([10]; Echinochloa crus-galli, scale of 0 to 100 where 0 is no effect and 100 is complete control, read-out: Barnyardgrass plant response rating) was 70% and the pest or weed control at 250 g/ha ([11]; Cyperus difformis, scale of 0 to 100 where 0 is no effect and 100 is complete control, read-out: Sedge, Umbrella plant response rating) was 0%.
